Measurements: article PMC5476731, “Molecular Basis of N,N-Diethyl-3-Methylbenzamide (DEET) in Repelling the Common Bed Bug, Cimex lectularius” (Frontiers in Physiology, 2017)

Experiments:
Assay in all cases: two-electrode voltage clamp, Xenopus oocytes
Assay type in all cases: cell-based, Cimex lectularius
OR37/ORCO = system: T1, OR37/ORCO; conditions: agonist; co-expressed ORCO; -80 mV; pH 7.6 Ringer; text b25 prints 6.5 × 10^−6 (discrepant)
T1 construct: cRNA (pT7Ts vector) co-injected with ORCO into Xenopus laevis oocytes; with Odorant receptor coreceptor

OR20/ORCO = system: T2, OR20/ORCO; conditions: agonist; co-expressed ORCO; -80 mV; pH 7.6 Ringer; text rounds to 7.5 × 10^−6
T2 construct: cRNA (pT7Ts vector) co-injected with ORCO into Xenopus laevis oocytes; with Odorant receptor coreceptor

OR36/ORCO = system: T3, OR36/ORCO; conditions: agonist; co-expressed ORCO; -80 mV; pH 7.6 Ringer; text rounds to 7.1 × 10^−6
T3 construct: cRNA (pT7Ts vector) co-injected with ORCO into Xenopus laevis oocytes; with Odorant receptor coreceptor

For `CCN(CC)C(=O)c1cccc(C)c1` [DEET, N,N-Diethyl-3-Methylbenzamide], the EC50 (OR37/ORCO) was 6.684 × 10^−6 v/v, the EC50 (OR20/ORCO) was 7.468 × 10^−6 v/v and the EC50 (OR36/ORCO) was 7.096 × 10^−6 v/v.
